Consider four compounds from patent EP1219604A1, “METHOD FOR IMPROVING THE SOLUBILITY OF TRICYCLIC AMINO ALCOHOL DERIVATIVES” (Asahi Kasei Kabushiki Kaisha, priority 1999, dated 2001).

Like-named read-outs stand apart in the source and are kept apart here.

A short description of data set [1]: Solubility in water, 1st fluid and 2nd fluid of the Japanese pharmacopeia disintegration test (shaking, filtration, HPLC). It counts as physicochemical. To be noted: thermodynamic from solid. How it is done:
That is, the solutions used were the water specified in the disintegration test method of the 13th edition of the Japanese pharmacopeia, the 1st fluid (a model of human gastric juice) and the 2nd fluid(a model of human intestinal juice). The processes for preparing them are as follows:
The 1st fluid (a model of human gastric juice) was an aqueous solution (pH about 1.2) prepared by dissolving sodium chloride (2.0 g) and hydrochloric acid (7.0 mL) in an amount of water such that the total volume is 1,000 mL.
The 2nd fluid (a model of human intestinal juice) was an aqueous solution (pH about 6.8) prepared by mixing a 0.2 M potassium dihydrogen phosphate aqueous solution (250 mL) with a 0.2 N sodium hydroxide aqueous solution (118 mL) and an amount of water such that the total volume is 1,000 mL.
The present compound (Compound A, B, C or D) in the amount of 20 mg was added to each solution (40 mL) set forth above, which was then shaken with a recipro-shaker (170 rpm) for 2 hours. Each sample (4 mL) obtained at 15, 30, 45, 60 and 120 minutes was filtered through a filter having a pore diameter of 0.45 µm to give a sample solution. The concentration of the said compound in the sample solution was determined by high performance liquid chromatography and the solubility was calculated. The high performance liquid chromatographic measurement was performed with HITACHI D-7000 (wave length: 254 nm; column: YMC-PACK C18; column temperature: 40°C; injection volume: 10 µL; flow rate: 1 mL/min; mobile phase: a solution obtained by dissolving sodium 1-octanesufonate (4.3 g) in a solution of phosphoric acid (1 mL) in water (1000 mL), and adding acetonitrile (400 mL) to 600 mL of the thus obtained solution . The retention time of each of Compounds A, B, C and D was about 20 minutes, about 14 minuets, about 25 minutes and about 27 minutes, respectively. […]
In this connection, the measurement was carried out according to the procedure of Reference Example 1.

A short description of data set [2]: Crystallinity by powder X-ray diffractometry. Type of data set: physicochemical. To be noted: for crystallinity: equation of crystallinity. The text has this: Whether a compound of the general formula (1) is amorphous or not, or the degree of amorphous status thereof can be determined based on its crystallinity, for example, measured by powder X-ray diffractometry. Generally, the degree of amorphous status can be indicated with the following equation. Degree of Amorphous status = 100 - Crystallinity [formula]
Powder X-ray diffractometry is a method comprising irradiating a powder sample with X-ray to compulsively oscillate electrons contained in the sample material, and measuring at each angle of diffraction the diffraction intensity of the coherent scattering X-ray caused by the compulsively oscillated electrons. The measurement data is indicated with the X-ray diffraction pattern as a diffraction intensity with respect to each angle of diffraction. […] Therefore, an amorphous substance can be distinguished from a crystalline substance based on their X-ray diffraction patterns and/or crystallinities. The measurement by powdery X-ray diffractometry in accordance with the present invention can be carried out with Shimadzu Powder X-ray Diffractometer (XRD-6000) under the following measurement conditions.
• Anticathode: Cu • X-ray tube voltage: 40 kV • X-ray tube current: 30 mA • Goniometer • Driving axle: θ-2θ • Scanning range: 3-49.98° • Scanning rate: 2°/min
The crystallinity was obtained with the soft of Shimazu Powder X-ray Diffractometer by carrying out the corrected calculation treatment of the Lorentz polarization factor of the measured data, calculating the integrated intensity of the peak derived from crystalline substance (Icr) and the integrated intensity of the peak derived from amorphous substance (Ia),respectively and calculating the concentration of crystalline moiety in the test sample, that is the crystallinity based on the ratio thereof by the following equation: x =(1)/(1 + K ×(I a)/(I cr))× 100 [formula] wherein X is a crystallinity; Icr is an integrated intensity of crystalline moiety; Ia is an integrated intensity of amorphous moiety; K is a ratio of the crystalline moiety of X ray intensity scattered from a certain amount of a material to the amorphous moiety thereof (the calculation is usually done under K=1).
Each standard sample was subjected to a powder X-ray diffraction measurement to determine the peak height and crystallinity of each standard sample (the powder X-ray diffraction pattern of the standard samples 1, 2, 3 and 4 being shown in Figures 1, 8, 9 and 10, respectively). A measurement by powdery X-ray diffractometry was carried out with Shimadzu Powder X-ray Diffractometer (XRD-6000) under the following measurement conditions.
Measurement condition: • Anticathode: Cu • X-ray tube voltage: 40 kV • X-ray tube current: 30 mA • Goniometer • Driving axle: θ-2θ • Scanning range: 3-50° • Scanning rate: 2°/min
The crystallinity was calculated with the soft of Shimadzu Powder X-ray Diffractometer. The thus obtained crystallinity of each standard sample was as follows:
These measurements were carried out based on the height of a diffraction peak as an indication, wherein the diffraction peak is characteristic of Compound A. The characteristic diffraction peak is a diffraction peak which can be distinguished from the diffraction peak derived from a pharmaceutically acceptable carrier and can characterize Compound A. Representative examples of the diffraction peak characteristic of Compound A include peaks at θ-2θ of about 8.5°, about 12.8°, about 16.2°, about 20.4°, about 21.4°, about 25.2° and about 26.9°. It is preferred to select a diffraction peak in which the relation between the height of diffraction peak and the crystallinity has a clear linearity.
With respect to each diffraction peak, a graph showing the correlation between the peak height and the crystallinity was made in which the peak height of each standard sample (vertical axis) is potted against the crystallinity (horizontal axis). […]

Where [3] appears, read: pH 1.2, simulated gastric fluid, 1st fluid (model of human gastric juice, pH about 1.2), after 2 hours, crystal form, read-out: Solubility (mg/mL) 1st fluid.
Where [4] appears, read: pH 6.8, fassgf or other biorelevant, 2nd fluid (model of human intestinal juice, pH about 6.8), after 2 hours, crystal form, read-out: Solubility (mg/mL) 2nd fluid.
[5] abbreviates: water, solubility after 2 hours, compound in crystal form, 20 mg in 40 mL, read-out: Solubility (mg/mL) Water.
The mark [6] stands for this setting: pH 1.2, simulated gastric fluid.
[7] abbreviates: pH 6.8, fassgf or other biorelevant.

In the case of `CS(=O)(=O)Nc1cccc([C@@H](O)CNCCOc2ccc3c(c2)[nH]c2ccccc23)c1.Cl` [Compound A, (R)-N-[3-[2-[2-(9H-carbazol-2-yloxy)ethylamino]-1-hydroxyethyl]phenyl]methanesulfonamide hydrochloride], the solubility at 2 h in data set [1] (setting [3]) is 0.002 mg/mL; in data set [1] (setting [4]), 0.005 mg/mL; in data set [1] (setting [5]), 0.123 mg/mL. The “crystallinity, another lot separately prepared” value in data set [2] is recorded as 88.8%. This compound also gave a crystallinity in data set [2] of 83.5%.

As to `CS(=O)(=O)Nc1cc([C@@H](O)CNCCOc2ccc3c(c2)[nH]c2ccccc23)ccc1O.O=C(O)C(O)C(O)C(=O)O` [Compound B, (R)-N-[5-[2-[2-(9H-carbazol-2-yloxy)ethylamino]-1-hydroxyethyl]-2-hydroxyphenyl]methanesulfonamide D-tartrate], the values for the solubility at 2 h in data set [1] (setting [3]), in data set [1] (setting [4]) and in data set [1] (setting [5]) were 0.003 mg/mL, 0.003 mg/mL and 1.34 mg/mL, respectively. Further, in data set [2], the “crystallinity, another lot separately prepared” value turned out to be 70.5%. For the same compound, in data set [2], the crystallinity amounted to 61.1%.

Regarding `CS(=O)(=O)Nc1cc([C@@H](O)CNCCOc2ccc3c(c2)[nH]c2ccccc23)ccc1Cl.Cl` [Compound C, (R)-N-[5-[2-[2-(9H-carbazol-2-yloxy)ethylamino]-1-hydroxyethyl]-2-chlorophenyl]methanesulfonamide hydrochloride], the solubility at 2 h was 0.008 mg/mL in data set [1] (setting [6]), 0.014 mg/mL in data set [1] (setting [7]) and 0.471 mg/mL in data set [1] (water). The “crystallinity, another lot separately prepared” value in data set [2] is 72.0%. The crystallinity in data set [2] was determined as 70.3%.

Regarding `CS(=O)(=O)Nc1cc([C@@H](O)CNCCOc2ccc3c(c2)[nH]c2ccccc23)ccc1Br.Cl` [Compound D, (R)-N-[5-[2-[2-(9H-carbazol-2-yloxy)ethylamino]-1-hydroxyethyl]-2-bromophenyl]methanesulfonamide hydrochloride], the solubility at 2 h is 0.035 mg/mL in data set [1] (setting [6]), 0.012 mg/mL in data set [1] (setting [7]) and 0.701 mg/mL in data set [1] (water).
